Data: US5750139A (priority 1994, dated 1998)
Like-named read-outs stand apart in the source and are kept apart here.

Columns and labels:
[1] = intra-individual pharmacokinetics, TDS versus oral tablet, one healthy volunteer; assay type: in vivo, human
Description: For better comparability, some pharmacokinetic preliminary experiments were carried out on one and the same healthy volunteer (i.e. intra-individually).

[2] = GCP-complying pharmacokinetic study of TDS with 14 healthy volunteers; assay type: in vivo, human
[3] = cited from earlier work
[4] = diffusion/dialysis of benzopyrone from formulation through cellulose membrane (layer thickness, pore size, viscosity); assay type: physicochemical
Text: When the same formulation was used, for example, the diffusion rate increased only by a factor of 1.6 when the pore volume was increased from 20 kD to 100 kD.

[5] = kinetics of active ingredient diffusion through the membrane in vitro; assay type: physicochemical
Description: The TDS to be tested were preselected by means of in vitro measurements of the dialysis of benzopyrone from the TDS investigated. For this purpose, the TDS available was stuck, on the side facing the skin, i.e. the membrane side, by means of the adhesive layer, in a dialysis apparatus and was dialyzed against an excess of a solution of polyethylene glycol 400 or against an albumin or saline solution for at least 24 h. […] The half-lives for a 50% and 95% diffusion yield (t/2 50% and t/2 95%, respectively) were calculated from the linear part of the dialysis curves. For example, three selected formulations gave the following half-lives (Table 1): […]

inflamed target tissues = conditions: in vivo
rat skin = conditions: cited from earlier work
[6] = 96 h application of a TDS: bioavailability, blood levels of benzopyrone during application and after removal
[7] = tested on: rat skin versus human skin; conditions: cited from earlier work
[8] = human, in vivo, topical or ocular
[9] = human, blood, topical or ocular, 200 mg

## O=c1ccc2ccc(O)cc2o1 [7-hydroxybenzopyrone]
[1]; TDS versus oral
  blood levels of II, TDS lower than after oral dose: 6-10 times
[1]; TDS versus oral, same absorbed dose
  maximum blood concentrations of II, TDS versus oral, based on the same absorbed dose: approximately comparable
[1]; oral versus transdermal
  blood levels of 7-hydroxybenzopyrone, oral compared with transdermal: substantially higher
[2]; after removal of the TDS
  decrease of blood levels of 7-hydroxybenzopyrone: decreased rapidly
[3]; liver, coupled metabolic conversion
  glucuronidation step faster than preceding oxidation reaction: about 3.5 times

## O=c1ccc2ccccc2o1 [benzopyrone, 5,6-benzo-alpha-pyrone]
[4]; 20% formulation, cellulose membrane 20 kD, 2.5 cm^2
  dialyzable amount of benzopyrone with increasing layer thickness: increases with increasing layer thickness until the saturation limit of the control membrane is reached and then remains constant
[4]; layer thickness 0.1 mm, 20% formulation, cellulose membrane 20 kD, 2.5 cm^2
  Amount of benzopyrone diffusing within 8 h: 8 mg
[4]; layer thickness 0.2 mm, 20% formulation, cellulose membrane 20 kD, 2.5 cm^2
  Amount of benzopyrone diffusing within 8 h: 14 mg
[4]; layer thickness 0.4 mm, 20% formulation, cellulose membrane 20 kD, 2.5 cm^2
  Amount of benzopyrone diffusing within 8 h: 14 mg
[4]; on increasing the viscosity of the formulation
  rate of dialysis of the benzopyrone: considerably reduced
[4]; pore volume increased from 20 kD to 100 kD, same formulation
  factor of increase of the diffusion rate: 1.6
[1]; TDS versus oral
  blood levels of benzopyrone (I), transdermal higher than after oral administration: 10 times
[1]; human, in vivo, po
  maximum blood levels of (I), TDS higher than after oral, based on same dose absorbed per day: 57 times
[1]; human, in vivo, po, t max of benzopyrone (I)
  Tmax: 3 h
[1]; [8]
  bioavailability at 48 h: 35%
[2]; human, blood, topical or ocular, 4 h after removal of the TDS (200 mg)
  concentration at 4 h: 4.96 ng/mL
[2]; human, blood, topical or ocular, single TDS 200 mg, application time 3 h
  concentration at 3 h: 23.4 ng/mL
[2]; human, blood, topical or ocular, single TDS 200 mg, application time 24 h
  concentration at 24 h: 27.3 ng/mL
[2]; single TDS 200 mg
  time to steady state of blood benzopyrone level: 3 h
[5]
  kinetics of active ingredient diffusion through the membrane: linear kinetics
Inflamed target tissues
  accumulation in tissue: preferably accumulates in inflamed target tissues
Rat skin; 1 g of 5% ointment over 30 cm^2, rat 1
  unabsorbed proportion of benzopyrone after 12 hours: 1.95 percent by weight
Rat skin; 1 g of 5% ointment over 30 cm^2, rat 2
  unabsorbed proportion of benzopyrone after 12 hours: 13.24 percent by weight
Rat skin; 1 g of 5% ointment over 30 cm^2, rat 3
  unabsorbed proportion of benzopyrone after 12 hours: 42.8 percent by weight
[3]; oral application
  first pass metabolism in the liver: virtually quantitative
  unchanged benzopyrone entering the circulation from the liver: virtually no unchanged benzopyrone
[6]; 96 h application
  active ingredient release over total application time: linear
[6]; TDS worn 4 days
  release of benzopyrone over 96 h: takes place in a constant manner
[6]; [9]
  concentration at 3 h: 2.4 ng/mL
  concentration at 6 h: 0.8 ng/mL
  concentration at 48 h: 5.5 ng/mL
  concentration at 72 h: 6.1 ng/mL
  concentration at 82 h: 8.7 ng/mL
  concentration at 96 h: 6.6 ng/mL
[6]; [8]
  bioavailability at 96 h: 70%

## CC1(C)C(C=C(Cl)Cl)C1C(=O)OC(C#N)c1cccc(Oc2ccccc2)c1 (centres unmarked) [cypermethrin]
[7]
  penetration of rat skin more readily than human skin: 20 times

## O=C(O)[C@H]1O[C@@H](Oc2ccc3ccc(=O)oc3c2)[C@H](O)[C@@H](O)[C@@H]1O [glucuronide (III)]
[3]; in vivo
  pharmacological activity: pharmacologically inactive

## COC1=CC(=O)C[C@@H](C)[C@]12Oc1c(Cl)c(OC)cc(OC)c1C2=O [griseofulvin]
[7]
  penetration of rat skin more readily than human skin: 14 times
